Here are results for 15 compounds from ChEMBL document CHEMBL1146987, “Ketopiperazine-based renin inhibitors: optimization of the "C" ring” (Bioorg Med Chem Lett, 2006).

Series [1] concerns the target CYP3A4 (Homo sapiens, UniProt P08684). As to the kind of experiment: Inhibition of CYP3A4 at 3 uM. The series is classed as ADME.
Series [2] deals with Cytochrome P450 3A4 (Homo sapiens, UniProt P08684). As to the kind of experiment: Inhibition of CYP3A4 using BFC fluorogenic substrate. The series is classed as ADME.
Sequence of Cytochrome P450 3A4 (P08684 whole entry): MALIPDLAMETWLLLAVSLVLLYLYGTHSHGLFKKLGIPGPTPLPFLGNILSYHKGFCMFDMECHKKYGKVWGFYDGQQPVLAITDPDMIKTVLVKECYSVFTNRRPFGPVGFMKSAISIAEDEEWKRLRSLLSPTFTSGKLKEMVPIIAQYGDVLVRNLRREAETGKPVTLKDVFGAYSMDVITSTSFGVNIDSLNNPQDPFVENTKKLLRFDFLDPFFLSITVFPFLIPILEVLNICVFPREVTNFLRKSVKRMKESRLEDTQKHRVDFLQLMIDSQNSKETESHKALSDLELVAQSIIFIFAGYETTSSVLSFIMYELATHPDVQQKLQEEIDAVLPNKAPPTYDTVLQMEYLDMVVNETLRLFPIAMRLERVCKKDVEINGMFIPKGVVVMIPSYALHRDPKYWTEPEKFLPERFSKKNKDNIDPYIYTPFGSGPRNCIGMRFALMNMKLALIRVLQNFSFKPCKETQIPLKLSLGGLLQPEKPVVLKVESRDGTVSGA
For series [3], the target named is T1, Renin (Homo sapiens, UniProt P00797).
T1 sequence (P00797 whole entry): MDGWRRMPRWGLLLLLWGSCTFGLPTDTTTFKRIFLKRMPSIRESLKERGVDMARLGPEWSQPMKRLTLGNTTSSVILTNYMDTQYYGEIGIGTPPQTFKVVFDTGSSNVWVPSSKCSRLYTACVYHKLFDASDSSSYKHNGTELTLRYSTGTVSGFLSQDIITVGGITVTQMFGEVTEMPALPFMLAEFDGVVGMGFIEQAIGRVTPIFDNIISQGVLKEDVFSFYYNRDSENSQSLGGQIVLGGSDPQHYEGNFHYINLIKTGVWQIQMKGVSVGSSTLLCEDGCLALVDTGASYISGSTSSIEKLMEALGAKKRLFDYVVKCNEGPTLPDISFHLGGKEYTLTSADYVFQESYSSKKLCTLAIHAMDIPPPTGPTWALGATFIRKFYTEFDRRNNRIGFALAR
As to the kind of experiment: Inhibition of renin.

Sequence of CYP3A4 (P08684 whole entry): as the sequence (P08684 whole entry) above

On to `COCCCN1C(=O)CCc2ccc(OC[C@H]3CNCC(=O)N3c3ccc(OCCCOCc4ccccc4OC)cc3)cc21`, for which the inhibition at 3 µM in series [1] worked out at 92%. The IC50 in series [2] amounted to 35 nM.
Consider `CCC(=O)OCCN1CCCc2ccc(OC[C@H]3CNCC(=O)N3c3ccc(OCCCOCc4ccccc4OC)cc3)cc21`, for which 3 µM produced 96% inhibition in series [1].
As for `COCCCN1C(=O)COc2ccc(SC[C@H]3CNCC(=O)N3c3ccc(OCCCOCc4ccccc4OC)cc3)cc21`, 3 µM produced 95% inhibition in series [1]. The compound further came in with an IC50 in series [2] of 14 nM.
On to `COc1ccccc1COCCCOc1ccc(N2C(=O)CNC[C@@H]2COc2ccc3c(c2)N(CCOC(=O)C(C)C)CCC3)cc1`, for which the figures for the IC50 in series [3] and in series [2] were 550 nM and 54 nM, respectively. At 3 µM the inhibition in series [1] was 92%.
As for `COc1ccccc1COCCCOc1ccc(N2C(=O)CNC[C@@H]2COc2ccc3c(c2)N(CCCO)CCC3)cc1`, the inhibition at 3 µM in series [1] is 71%. Besides, the IC50 in series [2] was 455 nM.
For `COc1ccccc1COCCCOc1ccc(N2C(=O)CNC[C@@H]2COc2ccc3c(c2)N(CCN(C)C(C)=O)CCC3)cc1`, the IC50 in series [3] came to 4 nM; in series [2], 18 nM.
`COCCCN1CCCc2ccc(OC[C@H]3CNCC(=O)N3c3ccc(OCCCOCc4ccccc4OC)cc3)cc21` yielded an inhibition at 3 µM in series [1] of 96%. Further, the IC50 in series [2] came out at 12 nM.
For the compound `COc1ccccc1COCCCOc1ccc(N2C(=O)CNC[C@@H]2CSc2ccc3c(c2)N(CC(=O)O)C(=O)CO3)cc1`, the IC50 in series [3] turned out to be 1200 nM; in series [2], 15000 nM.
Take `COc1ccccc1COCCCOc1ccc(N2C(=O)CNC[C@@H]2COc2ccc3c(c2)N(CCN2CCCC2=O)CCC3)cc1`: the IC50 in series [3] stood at 606 nM; in series [2], 42 nM.
On the same counts, the results for `COc1ccccc1COCCCOc1ccc(N2C(=O)CNC[C@@H]2COc2ccc3c(c2)N(CC(=O)O)C(=O)CO3)cc1` are 364 nM and 25000 nM.
Turning to `COc1ccccc1COCCCOc1ccc(N2C(=O)CNC[C@@H]2COc2ccc3c(c2)N(CCN2CCOC2=O)CCC3)cc1`, the IC50 is > 1000 nM in series [3] and 3790 nM in series [2].
The compound `COc1ccccc1COCCCOc1ccc(N2C(=O)CNC[C@@H]2COc2ccc3c(c2)N(CCOC(C)=O)CCC3)cc1` gave an inhibition at 3 µM in series [1] of 87%.
Consider `COCCCN1C(=O)COc2ccc(OC[C@H]3CNCC(=O)N3c3ccc(OCCCOCc4ccccc4OC)cc3)cc21`, for which, in series [3], the IC50 came to 0.68 nM. In series [1], this compound registered an inhibition at 3 µM of 95%.
As to `COc1ccccc1COCCCOc1ccc(N2C(=O)CNC[C@@H]2COc2ccc3c(c2)N(CCC(=O)O)CCC3)cc1`, the half-maximal inhibitory concentration (IC50) in series [3] is 450 nM; in series [2], 10000 nM.
As for `COc1ccccc1COCCCOc1ccc(N2C(=O)CNC[C@@H]2COc2ccc3c(c2)N(CCNC(C)=O)CCC3)cc1`, the IC50 is 0.29 nM in series [3] and 82 nM in series [2]. Further, in series [1], the inhibition at 3 µM worked out at 92%.
